Columns and labels:
Format in all cases: cell-based
[1] = test system: FANCB, FANCC, and FANCD2 genes; experiment: Expression of DNA repair genes in bladder cancer cell lines treated with doxorubicin; settings: non-muscle invasive cell lines (UC5, UC9) and invasive cell lines (5637, EJ); doxorubicin 0 to 50 μM for 12 hours or 24 hours; FIG. 9C
Protocol: (§1) Further, the inventors of the present disclosure studied expression of FOXM1, CCNB1 genes, and FANCB, FANCC, and FANCD2 genes relevant to Fanconi anemia pathways after non-muscle invasive cell lines (UC5, UC9) and invasive cell lines (5637, EJ) were treated with doxorubicin used as an anticancer drug for bladder cancer at a concentration of 0 to 50 μM for 12 hours or 24 hours.
Furthermore, in the non-muscle invasive cell lines (UC5, UC9) and invasive cell lines (5637, EJ) treated as described above, expression of the genes relevant to DNA repair was checked.

[2] = test system: invasive cell lines (5637, EJ); experiment: Cell viability of bladder cancer cell lines treated with doxorubicin; settings: invasive cell lines (5637, EJ) compared with non-muscle invasive cell lines (UC5, UC9); doxorubicin 0 to 50 μM for 12 hours or 24 hours; FIG. 9A
FOXM1 and CCNB1 genes = experiment: Expression of FOXM1 and CCNB1 genes in bladder cancer cell lines treated with doxorubicin; settings: invasive cell lines (5637, EJ); doxorubicin 0 to 50 μM for 12 hours or 24 hours; FIG. 9B
Protocol: as §1

COc1cccc2c1C(=O)c1c(O)c3c(c(O)c1C2=O)C[C@@](O)(C(=O)CO)C[C@@H]3O[C@H]1C[C@H](N)[C@H](O)[C@H](C)O1 [doxorubicin]
high: expression of the FANCB, FANCC, and FANCD2 genes relevant to Fanconi anemia pathways [1] | cell viability [2] | expression of FOXM1 and CCNB1 genes (FOXM1 and CCNB1 genes)
